Values joined by “and” are separate entries in the source; they are usually repeats but may differ in a detail not shown here. Equal entries are not always repeated. Where two headings read alike, the source gives them in different places.
How the values were obtained:
[1] = tested on: mice fed a high fat diet (HFD); assay: High fat diet (HFD) model in mice, five-week feeding with supplemented diets
[2] = tested on: livers of mice fed a high fat diet (HFD); assay: Histological evaluation of livers by H&E staining, scored by Modified Brunt Criteria (five-week HFD model); assay type: in vivo, C57BL mice; conditions: end of week 5; for Portal inflammation / Ballooning and disarray / Fibrosis: score per liver section; for Ballooning and disarray: * = and megakarya; for Fibrosis: ** = oval cell proliferation
Experimental: For liver histology, animals were sacrificed and liver tissues were removed and fixed in 4% formalin at room temperature. Liver sections were subjected to Hematoxylin-Eosin staining (PathoVet Veterinary Pathology Services, Rehovot, Israel).
Histological evaluation of livers was performed by H&E staining at the end of week 5. In the figure, arrows indicate micro and macrovesicular steatosis, and arrow heads indicate hepatocyte ballooning. […] This histological observation was in correlation with the elevated levels of blood liver enzymes SGOT and SGPT described above.

SREBP1c = assay: Liver protein level by Western blot; assay type: in vivo, mice; conditions: beta-actin as control; FIG. 13C
Description: (§1) FIG. 13. Effect of CDCArg on lipogenic gene expression and energy expenditure related genes in the liver. Treatments: mice were fed with LFD for 14 weeks or with HFD for 10 weeks. At week 10 the HFD group was divided randomly into two equal groups that were pair fed. One group received HFD, while the other group received HFD+CDCArg. mRNA levels of (A) PGC1α, (B) PPARα. (C) Protein level of sterol regulatory element binding protein 1c (SREBP1). *p<0.05, statistically different from control by student t-test. GAPDH was used as housekeeping normalizing gene.
SREBP1c was analyzed by Western blot analysis using beta-actin as control. Abs: Anti SREBP-1 Santa Cruse (Sc-367); Secondary goat Anti-Rabbit IgG, Jackson ImmunoResearch, Mouse Anti-Actin (612656) BD Transduction Laboratories. Secondary goat Anti-mouse IgG, Jackson ImmunoResearch.

[3] = tested on: mice fed a high fat diet (HFD); conditions: mouse, in vivo
[4] = tested on: mice fed a high fat diet (HFD); conditions: for Liver weight: FIG. 12d
Description: Mice were randomly divided into two dietary groups:
1) Control diet: low-fat diet (LFD), 16% calories from fat (n=5);
2) High-fat diet (HFD): 60% calories from fat (mainly palm stearin) (n=16).
In order to determine the effects of CDCArg following the onset of liver steatosis, mice were first treated for 10 weeks with HFD to develop hepatic fat accumulation. Thereafter, the HFD-fed mice were divided to two equal groups (n=8 in each group): (a) continued the previous HFD treatment, and (b) HFD+CDCArg 0.5% w/w. In this part of the experiment mice were pair-fed (15.5 kCal/day per mice). The LFD control group consumed on average the same amount of calories per day per mice. The duration of treatment with CDCArg was four (4) weeks. Food consumption and gain of weight were evaluated.
To assess the impact of CDCArg on intestinal absorption, fecal lipid contents were measured before and after CDCArg consumption. Total lipids were extracted from feces using Folch's method (Folch et al., 1957, J Biol Chem, 226:497-509) after collecting feces during weeks 9-10 and 12-13. […] The effect of CDCArg on insulin resistance was evaluated using intraperitoneal glucose tolerance test (IPGTT). Glucose tolerance was assessed in the mice during the eighth and fourteenth weeks of the study (before and after the beginning of treatment with CDCArg). IPGTT was performed in 12 hours-fasted mice by injecting glucose (2 g/kg in 20% solution) intraperitoneally. Blood samples were obtained by cutting the tail tip and glucose concentration was measured after 0, 30, 60, 90, and 120 minutes.

[5] = tested on: mice fed a high fat diet (HFD); assay: Intraperitoneal glucose tolerance test (IPGTT) in HFD-fed mice; assay type: in vivo; conditions: week fourteen; glucose 2 g/kg i.p., 12 hours-fasted; FIG. 11
Description: FIG. 11. Effect of CDCArg on insulin resistance as evaluated by intra-peritoneal glucose tolerance test (IPGTT). (A) IPGTT performed at weeks eight and (B) fourteen (before and after the beginning of treatment). Values are expressed as mean±SEM (n=8-9 animals per group). Means with * are statistically higher than Control group, p<0.05 (t.test (a) one way ANOVA, Post Hoc dunnett test (b)).

PPARα = assay: Liver gene expression, mRNA by reverse-transcription and real time PCR; assay type: in vivo, mice; conditions: GAPDH normalizing gene; FIG. 13B
Description: as §1
(§2) Gene expression analyses of PPARα and PGC1α were performed by quantifying mRNA levels by reverse-transcription and real time PCR. GAPDH (glyceraldehyde 3-phosphate dehydrogenase) was used as housekeeping normalizing gene. The following primers were used: […]

PGC1α = assay: as above; assay type: in vivo, mice; conditions: GAPDH normalizing gene; FIG. 13A
Description: as §1, §2

AMPK = assay: Liver AMPK and pAMPK levels by Western blot; assay type: in vivo, mice
Experimental: The levels of AMPK and pAMPK were analyzed using Western blot analysis.

## N=C(N)NCCC[C@H](N)C(=O)O [Arg, L-arginine, reference compound]
[1]; end of week 5, FIG. 5a
  Average triglycerides in the blood: higher level of blood triglycerides
[1]; end of week 5, compared to control low fat diet, FIG. 4
  Average total cholesterol in the blood: significantly increased levels of total blood cholesterol
[2]; FIG. 9
  Liver damage by histology (H&E staining): increased liver damage
[2]
  Portal inflammation: 0
  Ballooning and disarray: 0
  Fibrosis: 0

## CCOC(=O)[C@H](CCCNC(=N)N)NC(=O)CC[C@@H](C)[C@H]1CC[C@H]2[C@@H]3[C@H](O)C[C@@H]4C[C@H](O)CC[C@]4(C)[C@H]3CC[C@]12C [CDCArg, Chenodeoxycholyl-Arginine-Ethyl Ester]
[1]; end of week 5, compared to HFD alone or HFD+Arg, FIG. 3
  Average weight of adipose tissue (testicular fat): significantly lower increase in testicular fat weight
[1]; end of week 5, compared to control diet, FIG. 7
  Average liver weight: no difference in liver weight compared to control
[1]; five weeks, among groups that consumed a high fat diet, FIG. 2
  Average body weight (increase): lowest increase in body weight
[1]; five weeks, compared to the HFD group, FIG. 8b
  Plasma level of insulin: significantly decreased
[1]; five weeks, compared to the HFD group, FIG. 8c
  Plasma level of leptin: significantly decreased
SREBP1c
  SREBP1c protein expression in the liver: suppress the protein expression
[3]
  General toxicity (plasma creatinine, sodium, potassium and chloride levels): without toxicity effects
  Saturated fat-induced liver damage (blood SGOT, SGPT): did not potentiate saturated fat-induced liver damage
[4]; HFD+CDCArg 0.5% w/w for 4 weeks after 10 weeks HFD, vs continued HFD, FIG. 10a
  Body weight gain: prevented this weight gain
[4]; HFD+CDCArg compared to the HFD group, FIG. 10b
  Adipose tissue weight: substantially lower
[4]; HFD+CDCArg vs HFD group, FIG. 12e
  Liver micro and macro steatosis (histological evaluation): lesser liver micro and macro steatosis
[4]; HFD+CDCArg vs HFD group
  Liver weight: significantly lower
[4]; HFD+CDCArg vs control (LFD) group
  Liver weight: even lesser than in control
[4]; mouse, in vivo
  Alkaline phosphatase levels in plasma: not significantly altered
  Plasma albumin levels: significantly higher
[4]; plasma, HFD+CDCArg compared with the HFD group, FIG. 12a
  SGPT levels: significantly lower
[4]; plasma, HFD+CDCArg compared with the HFD group, FIG. 12b
  SGOT levels: significantly lower
[4]; weeks 12-13, Folch's method, FIG. 10d
  Fat contents in feces: significantly higher
[5]
  Area under the curve of the glycemic response (IPGTT): decreasing the area under the curve of the glycemic response
  Peak glucose values in the IPGTT: lowering the peak glucose values
PPARα
  PPARα mRNA level in the liver: activated
PGC1α
  PGC1α mRNA level in the liver: activated
[2]
  Portal inflammation: 0 and 1
  Ballooning and disarray: 0
  Fibrosis: 0
AMPK
  Ratio of phosphorylated AMPK (pAMPK) to AMPK: tending to be higher
